# Source: patent EP1946777A1, “Substituted pyrazoline for preventing weight gain” (Laboratorios del Dr. Esteve S.A., priority 2007, dated 2008)
# Where two headings read alike, the source gives them in different places.
# Experiments:
# rat CB1 receptors = target: T1, rat CB1 receptors (Rattus norvegicus, UniProt P20272); experiment: Affinity for rat CB1 receptors: competitive binding of [3H]-CP 55,940 to rat cerebellum membranes; conditions: 1 nM [3H]-CP 55,940, rat cerebellum membranes, 1 hour at 30°C
# T1 construct: cerebella from male Wistar rats (250-300g) were carefully dissected on ice and homogenates were prepared; from tissue; host or cells: rat cerebellum (male Wistar) membrane homogenate
# Procedure: Binding affinity to CB1 receptor was evaluated according to the method of Govaerts et al (2004) with the following modifications Briefly, cerebella from male Wistar rats (250-300g) were carefully dissected on ice and homogenates were prepared in cold 50 mM Tris-HCl, 5 mM MgCl2, 1 mM EDTA, 0.25 M sucrose, pH 7.4 with a Potter-Heljheim homogenizer and the suspension was centrifuged at 1,000 x g for 5 minutes. The supernatants were collected and centrifuged 50,000 x g for 15 min. The resulting pellets were resuspended in Tris-HCl buffer without sucrose, homogenized and incubated for 15 min at 37°C in an orbital shaker bath and centrifuged again at 50,000 x g for 15 min. Pellets were weighed, resuspended in Tris-HCl buffer without sucrose, homogenized with an Ultraturrax at 13,500 rpm for 3 x 5 seconds and aliquoted in 0.9 ml volumes in Eppendorf tubes. Aliquots were centrifuged at 20,800 x g for 5 minutes, supernatants discarded and pellets were frozen at -80°C until use. Total protein concentration was determined using a Bio-Rad commercial assay base on the Lowry method. […]
# Binding data were analyzed by non-linear regression with the software GraphPad Prism Version 3.03.
# [1] = Figure 5; cited from earlier work
# [2] = Figure 4; cited from earlier work
# T1 sequence (P20272 whole entry): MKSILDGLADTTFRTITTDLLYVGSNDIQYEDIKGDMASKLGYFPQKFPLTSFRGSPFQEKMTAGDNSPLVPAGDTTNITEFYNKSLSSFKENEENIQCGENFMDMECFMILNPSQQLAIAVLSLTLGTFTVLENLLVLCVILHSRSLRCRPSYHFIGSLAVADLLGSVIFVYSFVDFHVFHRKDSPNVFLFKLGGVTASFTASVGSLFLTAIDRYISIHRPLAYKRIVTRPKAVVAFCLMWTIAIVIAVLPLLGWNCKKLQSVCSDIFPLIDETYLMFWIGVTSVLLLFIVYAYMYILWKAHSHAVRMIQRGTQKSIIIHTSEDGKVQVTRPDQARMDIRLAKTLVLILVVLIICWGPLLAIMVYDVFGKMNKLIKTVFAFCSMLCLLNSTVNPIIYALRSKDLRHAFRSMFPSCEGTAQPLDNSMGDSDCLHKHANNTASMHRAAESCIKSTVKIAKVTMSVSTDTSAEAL
structure (smiles),measurement,setting,value
"O=C(NN1CCCCC1)C1=NN(c2ccc(Cl)cc2Cl)C(c2ccc(Cl)cc2)C1 (stereo not shown) [Subgroup A1, Chemical example 1]",IC50,rat CB1 receptors; read-out: IC50,0.026 µM
same,IC50,rat CB1 receptors; read-out: pIC50 (converted),0.0224 µM
Cc1c(C(=O)NN2CCCCC2)nn(-c2ccc(Cl)cc2Cl)c1-c1ccc(Cl)cc1 [rimonabant],ability to prevent antipsychotic-induced weight-gain,[1],only partially effective
CC(C)CC(N(C)C)C1(c2ccc(Cl)cc2)CCC1 (stereo not shown) [sibutramine],prevention of antipsychotic-induced weight-gain,[2],Partial prevention of antipsychotic-induced weight-gain
